Measurements as given in article PMC8658889, “Seriniquinones as Therapeutic Leads for Treatment of BRAF and NRAS Mutant Melanomas” (Molecules, 2021).
Read-outs that look alike come from different tables or passages of the source.

Experiments:
HCT-116 = experiment: MTT cytotoxicity assay; assay type: cell-based, Human; details: for IC50: Homo sapiens, HCT-116, 72 h treatment, MTT
Text: (§1) Human cell lines were used throughout this program. SK-MEL-19 (melanoma BRAF^V600E, NRAS^WT), SK-MEL-28 (melanoma BRAF^V600E, NRAS^WT), SK-MEL-147 (melanoma BRAF^WT, NRAS^Q61R), MRC-5 (fibroblasts), and primary fibroblast (FDH) were kindly provided by Professor Glaucia Santelli (University of São Paulo, Brazil). MCF7 (breast adenocarcinoma, ATCC HTB-22), and HCT-116 (colorectal carcinoma, ATCC 247) cells were obtained from American Type Culture Collection (ATCC) and deposited in the Cell Bank of Rio de Janeiro, Brazil. WM293A (metastatic melanoma BRAF^V600D, NRAS^WT), 501mel (metastatic melanoma BRAF^V600E; NRAS^G12D), and MM200 (melanoma BRAF^V600E, NRAS^WT) were kindly provided by Professor Sharon Prince, University of Cape Town, South Africa. All human melanoma and breast cell lines were cultivated with Dulbecco’s Modified Eagle Medium: Nutrient Mixture F-12 (Thermo Fisher Scientific, San Jose, CA, USA). MM200 and HCT-116 were maintained with Roswell Park Memorial Institute (RPMI) medium (Thermo Fisher Scientific, San Jose, CA, USA). Unless stated otherwise, media was supplemented with 10% fetal bovine serum (FBS) and 1% penicillin-streptomycin (Thermo Fisher Scientific, San Jose, CA, USA). Cells were incubated with 5% CO2 at 37 °C. When required, cells were detached from flask using trypsin-EDTA 0.05% (Thermo Fisher Scientific, San Jose, CA, USA).
(§2) Cytotoxic activity was evaluated by the transformation of 3-(4,5-dimethylthiazol-2-yl)-2,5-diphenyltetrazolium bromide (MTT; Thermo Fisher Scientific, San Jose, CA, USA) into formazan by viable cells. Cells were plated in a 96-well plate (1 × 10^4 cells/well) and, 24 h later, exposed to serial dilutions of the test compounds (from 0.00032 to 5.0 µM) for 24, 48, and 72 h. For each analysis, negative controls received 0.5% DMSO and positive control was delivered by doxorubicin (DOX; 0.05 to 10.0 µM). At the end of the incubation periods, the medium was replaced with fresh medium containing 0.5 mg/mL of MTT and supernatant was removed 3 h later. The plates were dried at 50 °C for 30 min and formazan was solubilized in DMSO (150 µL/well) for the absorbance measure at 570 nm on a plate reader (Thermo Fisher Scientific, San Jose, CA, USA). IC50 values (half-maximal inhibitory concentration) along with 95% CI (confidence intervals) were calculated by non-linear regression using GraphPad Prism 8.0 software (GraphPad Software, Inc., San Diego, CA, USA).

501mel = experiment: MTT cytotoxicity assay; assay type: cell-based, Human; details: for IC50: Homo sapiens, 501mel, 72 h treatment, MTT
Text: as §1, §2

WM293A = experiment: MTT cytotoxicity assay; assay type: cell-based, Human; details: for IC50: Homo sapiens, WM293A, 72 h treatment, MTT
Text: as §1, §2

FDH = experiment: MTT cytotoxicity assay; assay type: cell-based, Human; details: FDH primary fibroblasts, 72 h treatment
Text: as §1, §2

SK-MEL-28 [1] = experiment: MTT cytotoxicity assay; assay type: cell-based, Human; details: for IC50: Homo sapiens
Text: as §1, §2

MCF7 = experiment: MTT cytotoxicity assay; assay type: cell-based, Human; details: for IC50: Homo sapiens, MCF7, 72 h treatment, MTT
Text: as §1, §2

MM200 = experiment: MTT cytotoxicity assay; assay type: cell-based, Human; details: for IC50: MM200, 72 h treatment, MTT
Text: as §1, §2

SK-MEL-19 = experiment: MTT cytotoxicity assay; assay type: cell-based, Human; details: for IC50: Homo sapiens, SK-MEL19, SK-MEL-19, 72 h treatment, MTT
Text: as §1, §2

SK-MEL-147 [2] = experiment: MTT cytotoxicity assay; assay type: cell-based, Human; details: for IC50: Homo sapiens
Text: as §1, §2

SK-MEL-28 [3] = experiment: Trypan blue exclusion test (cell viability); assay type: cell-based, Human; details: SK-MEL-28, 24-h treatment, 1.0, 2.5 or 5.0 µM
Experimental: (§3) Fifty thousand (5 × 10^4) cells in 1 mL of media were seeded in cell culture dishes and, 24 h later, treated with SQ1 or SQ2 (1.0, 2.5, and 5.0 µM), vehicle (DMSO) and doxorubicin (DOX, positive control) for 24 h. Cells were detached, stained with Trypan Blue solution 0.4% (1:10, v/v; Sigma-Aldrich, St. Louis, MO, USA) and counted in a Neubauer chamber under optical microscopy to determine concentrations of viable and non-viable cells.

SK-MEL-147 [4] = experiment: Trypan blue exclusion test (cell viability); assay type: cell-based, Human; details: for number of viable cells: SK-MEL-147, 24-h treatment, 1.0, 2.5 or 5.0 µM
Experimental: as §3

[5] = design: method as in PMID 30783501; details: organic and aqueous media, cited from earlier work
melanoma cells = experiment: MTT cytotoxicity assay, melanoma panel; assay type: cell-based, Human
Text: as §1, §2

[6] = HCT-116 versus FDH, 72-h IC50 ratio
[7] = HCT-116 versus MRC-5, 72-h IC50 ratio
[8] = 501mel versus FDH, 72-h IC50 ratio
[9] = 501mel versus MRC-5, 72-h IC50 ratio
[10] = WM293A versus FDH, 72-h IC50 ratio
[11] = WM293A versus MRC-5, 72-h IC50 ratio
[12] = SK-MEL-28, 24 h, SK-MEL-28, 24h treatment, MTT
[13] = SK-MEL-28, 48 h, SK-MEL-28, 48h treatment, MTT
[14] = SK-MEL-28, 72 h, SK-MEL-28, 72 h treatment, MTT
[15] = SK-MEL-28, SK-MEL-28, 24h treatment, 1h pre-treated with 30 nM bafilomycin A1
[16] = SK-MEL-28, SK-MEL-28, 24h treatment, 1h pre-treated with 20 µM Z-VAD-FMK
[17] = SK-MEL-28, SK-MEL-28, 24h treatment, no pre-treatment (Table S4)
[18] = SK-MEL-28 versus FDH, 72-h IC50 ratio
[19] = SK-MEL-28 versus MRC-5, 72-h IC50 ratio
[20] = MCF7 versus FDH, 72-h IC50 ratio
[21] = MCF7 versus MRC-5, 72-h IC50 ratio
[22] = MM200 versus FDH, 72-h IC50 ratio
[23] = MM200 versus MRC-5, 72-h IC50 ratio
[24] = SK-MEL-19 versus FDH, 72-h IC50 ratio
[25] = SK-MEL-19 versus MRC-5, 72-h IC50 ratio
[26] = SK-MEL-147, 24 h, SK-MEL-147, 24h treatment, MTT
[27] = SK-MEL-147, 48 h, SK-MEL-147, 48h treatment, MTT
[28] = SK-MEL-147, 72 h, SK-MEL-147, 72 h treatment, MTT
[29] = SK-MEL-147, SK-MEL-147, 24h treatment, 1h pre-treated with 30 nM bafilomycin A1
[30] = SK-MEL-147, SK-MEL-147, 24h treatment, 1h pre-treated with 20 µM Z-VAD-FMK
[31] = SK-MEL-147, SK-MEL-147, 24h treatment, no pre-treatment (Table S4)
[32] = SK-MEL-147 versus FDH, 72-h IC50 ratio
[33] = SK-MEL-147 versus MRC-5, 72-h IC50 ratio

Q: Which “Selectivity Index (SI)” value (HCT-116; [6]) does the source give for `O=c1c2ccccc2c(=O)c2c1sc1c(=O)c3ccccc3c(=O)c12` [SQ1, seriniquinone] here?
A: 1.1

Q: And the “Selectivity Index (SI)” value (HCT-116; [7])?
A: 0.6

Q: What about the IC50 (HCT-116) of the same compound?
A: 1000 nM

Q: What about the “Selectivity Index (SI)” value (501mel; [8]) of the same compound?
A: 3.6

Q: What about the “Selectivity Index (SI)” value (501mel; [9]) of the same compound?
A: 2.0

Q: What about the IC50 (501mel) of the same compound?
A: 320 nM

Q: And the IC50 (WM293A)?
A: 1050 nM

Q: What about the “Selectivity Index (SI)” value (WM293A; [10]) of the same compound?
A: 1.1

Q: And the “Selectivity Index (SI)” value (WM293A; [11])?
A: 0.6

Q: And the IC50 (FDH)?
A: 1200 nM

Q: What about the IC50 (FDH; Homo sapiens, Fibroblast, 72 h) of the same compound?
A: 1150 nM

Q: And the IC50 (SK-MEL-28 [1]; [12])?
A: 560 nM

Q: And the IC50 (SK-MEL-28 [1]; [13])?
A: 690 nM

Q: What about the IC50 (SK-MEL-28 [1]; [14]) of the same compound?
A: 150 nM

Q: And the IC50 (SK-MEL-28 [1]; [15])?
A: 140 nM

Q: What about the IC50 (SK-MEL-28 [1]; [16]) of the same compound?
A: 700 nM

Q: And the IC50 (SK-MEL-28 [1]; [17])?
A: 350 nM

Q: What about the “Selectivity Index (SI)” value (SK-MEL-28 [1]; [18]) of the same compound?
A: 7.7

Q: And the “Selectivity Index (SI)” value (SK-MEL-28 [1]; [19])?
A: 4.3

Q: What about the IC50 (MCF7) of the same compound?
A: 3300 nM

Q: What about the “Selectivity Index (SI)” value (MCF7; [20]) of the same compound?
A: 0.3

Q: What about the “Selectivity Index (SI)” value (MCF7; [21]) of the same compound?
A: 0.2

Q: And the IC50 (MM200; Homo sapiens, 72 h)?
A: 1360 nM

Q: And the IC50 (MM200)?
A: 1400 nM

Q: And the “Selectivity Index (SI)” value (MM200; [22])?
A: 0.8

Q: And the “Selectivity Index (SI)” value (MM200; [23])?
A: 0.5

Q: And the IC50 (SK-MEL-19)?
A: 60 nM

Q: And the “Selectivity Index (SI)” value (SK-MEL-19; [24])?
A: 19.2

Q: What about the “Selectivity Index (SI)” value (SK-MEL-19; [25]) of the same compound?
A: 10.7

Q: And the IC50 (SK-MEL-147 [2]; [26])?
A: 1790 nM

Q: What about the IC50 (SK-MEL-147 [2]; [27]) of the same compound?
A: 1610 nM

Q: What about the IC50 (SK-MEL-147 [2]; [28]) of the same compound?
A: 130 nM

Q: And the IC50 (SK-MEL-147 [2]; [29])?
A: 2260 nM

Q: And the IC50 (SK-MEL-147 [2]; [30])?
A: 1890 nM

Q: And the IC50 (SK-MEL-147 [2]; [31])?
A: 1640 nM

Q: What about the “Selectivity Index (SI)” value (SK-MEL-147 [2]; [32]) of the same compound?
A: 8.8

Q: And the “Selectivity Index (SI)” value (SK-MEL-147 [2]; [33])?
A: 4.9

Q: And the “number of viable cells” value (SK-MEL-28 [3])?
A: significantly reducing the number of viable cells

Q: And the “number of viable cells” value (SK-MEL-147 [4])?
A: significantly reducing the number of viable cells

Q: What about the solubility [5] of the same compound?
A: lack of solubility

Q: And the solubility ([5]; listed as seriniquinone)?
A: poor water-solubility

Q: What does the source list for `CC(C)(O)C(O)CCc1ccc2c(=O)c3sc4c(=O)c5ccccc5c(=O)c4c3c(=O)c2c1` (stereo not shown) [SQ2]?
A: selectivity indices to SK-Mel cells in relation to non-tumor cell lines (melanoma cells; SK-Mel cells versus non-tumor cell lines): ≥ twofold; selectivity for melanoma cells (SI ratio) (melanoma cells; melanoma cells versus non-tumor cell lines MRC-5 or FDH, highest values reached): 30–40; Selectivity Index (SI) (HCT-116; [6]): 5.1; Selectivity Index (SI) (HCT-116; [7]): 6.8; IC50 (HCT-116): 230 nM; Selectivity Index (SI) (501mel; [8]): 10.6; Selectivity Index (SI) (501mel; [9]): 14.3; IC50 (501mel): 110 nM; IC50 (WM293A): 740 nM; Selectivity Index (SI) (WM293A; [10]): 1.6; Selectivity Index (SI) (WM293A; [11]): 2.1; IC50 (FDH; Homo sapiens, Fibroblast, 72 h): 1170 nM; IC50 (SK-MEL-28 [1]; [12]): 140 nM; IC50 (SK-MEL-28 [1]; [13]): 260 nM; IC50 (SK-MEL-28 [1]; [14]): 40 nM; IC50 (SK-MEL-28 [1]; [15]): 60 nM; IC50 (SK-MEL-28 [1]; [16]): 370 nM; IC50 (SK-MEL-28 [1]; [17]): 240 nM; Selectivity Index (SI) (SK-MEL-28 [1]; [18]): 29.3; Selectivity Index (SI) (SK-MEL-28 [1]; [19]): 39.3; IC50 (MCF7): 730 nM; Selectivity Index (SI) (MCF7; [20]): 1.6; Selectivity Index (SI) (MCF7; [21]): 2.2; IC50 (MM200; Homo sapiens, 72 h): 750 nM; Selectivity Index (SI) (MM200; [22]): 1.6; Selectivity Index (SI) (MM200; [23]): 2.1; IC50 (SK-MEL-19): 40 nM; Selectivity Index (SI) (SK-MEL-19; [24]): 29.3; Selectivity Index (SI) (SK-MEL-19; [25]): 39.3; IC50 (SK-MEL-147 [2]; [26]): 1260 nM; IC50 (SK-MEL-147 [2]; [27]): 890 nM; IC50 (SK-MEL-147 [2]; [28]): 100 nM; IC50 (SK-MEL-147 [2]; [29]): 1180 nM; IC50 (SK-MEL-147 [2]; [30]): 1280 nM; IC50 (SK-MEL-147 [2]; [31]): 910 nM; Selectivity Index (SI) (SK-MEL-147 [2]; [32]): 11.7; Selectivity Index (SI) (SK-MEL-147 [2]; [33]): 15.7; number of viable cells (SK-MEL-28 [3]): significantly reducing the number of viable cells; number of viable cells (SK-MEL-147 [4]): significantly reducing the number of viable cells; proportion of non-viable cells (SK-MEL-147 [4]; SK-MEL-147, 24 h, 2.5 and 5.0 µM): significantly higher; solubility [5]: improved solubility
